Reference: patent US20220168322A1, “NOVEL STAT3 INHIBITORS IDENTIFIED BY STRUCTURE-BASED VIRTUAL SCREENING INCORPORATING SH2 DOMAIN FLEXIBILITY” (Board of Regents, The University of Texas System, priority 2018, published 2022)
Like-named read-outs stand apart in the source and are kept apart here.

Key:
G-CSF-stimulated pSTAT3 = experiment: Inhibition of G-CSF-stimulated pSTAT3 in Kasumi-1 cells (Luminex, pSTAT3/GAPDH); type: cell-based; settings: for activity at 10 µM: Kasumi 1, read-out: % of Control Stimulated pSTAT3; for activity at 10 µM / % of Control Stimulated pSTAT3: single concentration of 10 μM, G-CSF 100 ng/ml, pSTAT3/GAPDH relative to DMSO treated cells; for inhibition at 10 µM: Kasumi-1 cells, read-out: inhibition of G-CSF-induced pY-STAT3
Protocol: […] Total protein was assayed for pSTAT3 and GAPDH levels by Luminex. GAPDH-normalized pSTAT3 values were divided by the same for untreated cells and expressed as percentage. These values were plotted as a function of Log [M] compound, and IC50 calculated using GraphPad. Data from representative experiments from at least two repeats is shown.
Luminex bead-based assay. Luminex bead-based assays were used to determine levels of pSTAT3, pSTAT1, pSTAT5, and GAPDH, as described (Bharadwaj et al., 2015). […]

STAT3 (aa 127-722) = molecular target: T1, STAT3 (aa 127-722) (Homo sapiens, UniProt P40763); experiment: SPR assay of STAT3 binding to immobilized EGFR pY1068 phosphododecapeptide; settings: for inhibition at 10 µM / inhibition at 100 µM / inhibition of STAT3 binding to EGFR pY-peptide: SPR; for inhibition at 10 µM / inhibition at 100 µM: read-out: inhibition of STAT3 binding to EGFR pY-peptide; for % of max binding at 10 μm: pEGFRp-STAT3 binding (SPR) at pH 8, compound 10 μm; for % of max binding at 100 μm: pEGFRp-STAT3 binding (SPR) at pH 8, compound 100 μm; for inhibition at 100 µM / inhibition of STAT3 binding to EGFR pY-peptide: 100 μM
T1 construct: STAT3 (aa 127-722) at a concentration of 200 nM
Protocol: Surface plasmon resonance (SPR) assay of STAT3 binding pY-peptide. STAT3 (aa 127-722) at a concentration of 200 nM in 20 mM Tris buffer (pH 8) was pre-incubated without or with compounds prior to injection onto an SA chip immobilized with phosphorylated and control non-phosphorylated biotinylated EGFR derived dodecapeptides based on sequence surrounding Y1068 (Shao et al., 2004), on a Biacore 3000 biosensor (Biacore inc., Piscataway N.J.) and analyzed as described (Bharadwaj et al., 2016).
Surface Plasmon Resonance (SPR) was performed on the 24 compounds to determine their ability to block binding of purified STAT3 to an immobilized phosphododecapeptide based on EGFR Y1068 (EGFR pY-peptide), as described (Xu et al., 2009).

MDA-MB-231 cells = experiment: Anchorage-independent and dependent cell growth (MTT), MDA-MB-231; type: cell-based; settings: NA = No Activity
Protocol: (§1) MDA-MB-231 cells were cultured for 48 hrs in complete DMEM with 10% FBS±compound (0/0.1/0.3/1/3/10/100 μM) in cell-culture-treated plates and viable cells quantitated using MTT. Relative % viability (viability after any treatment÷viability of untreated cells×100) was plotted as a function of Log [M] compound, and IC50 values calculated using GraphPad.
as §1, with “72” for “48”, “cell-culture-treated ultra-low attachment 96-well” for “cell-culture-treated”
(§2) Anchorage-independent and dependent cell growth. Cells were cultured in triplicates in complete DMEM±drug, in ultra-low attachment 96 well plates for 72 hrs or cell-culture treated plates for 48 hrs and viable cells were quantitated using MTT. Optical density (OD) was measured at 590 nm using a 96-well multi-scanner (Synergy H1 microplate reader, BioTek Inc, VT, USA). Relative % viability (viability after any treatment÷viability of untreated cells×100) was plotted along Y-axis. At least 2 replicates experiments were performed and were used for IC50 calculation using GraphPad software.

MDA-MB-468 cells = experiment: Anchorage-independent and dependent cell growth (MTT), MDA-MB-468; type: cell-based; settings: NA = No Activity
Protocol: as §1, with “MDA-MB-468” for “MDA-MB-231”
as §1, with “MDA-MB-468” for “MDA-MB-231”, “72” for “48”, “cell-culture-treated ultra-low attachment 96-well” for “cell-culture-treated”, “treatment viability” for “treatment÷viability”
as §2

[1] = Kasumi1 cells, G-CSF induced pSTAT3/GAPDH by Luminex
[2] = Homo sapiens, MDA-MB-231, 72 h, anchorage independent, ultra-low attachment plates, 72 hrs, read-out: Growth AI IC50 231
[3] = anchorage dependent, cell-culture treated plates, 48 hrs
[4] = anchorage independent, ultra-low attachment plates, 72 hrs

T1 sequence (P40763 127-722 isoform P40763-3 limits assumed, species assumed): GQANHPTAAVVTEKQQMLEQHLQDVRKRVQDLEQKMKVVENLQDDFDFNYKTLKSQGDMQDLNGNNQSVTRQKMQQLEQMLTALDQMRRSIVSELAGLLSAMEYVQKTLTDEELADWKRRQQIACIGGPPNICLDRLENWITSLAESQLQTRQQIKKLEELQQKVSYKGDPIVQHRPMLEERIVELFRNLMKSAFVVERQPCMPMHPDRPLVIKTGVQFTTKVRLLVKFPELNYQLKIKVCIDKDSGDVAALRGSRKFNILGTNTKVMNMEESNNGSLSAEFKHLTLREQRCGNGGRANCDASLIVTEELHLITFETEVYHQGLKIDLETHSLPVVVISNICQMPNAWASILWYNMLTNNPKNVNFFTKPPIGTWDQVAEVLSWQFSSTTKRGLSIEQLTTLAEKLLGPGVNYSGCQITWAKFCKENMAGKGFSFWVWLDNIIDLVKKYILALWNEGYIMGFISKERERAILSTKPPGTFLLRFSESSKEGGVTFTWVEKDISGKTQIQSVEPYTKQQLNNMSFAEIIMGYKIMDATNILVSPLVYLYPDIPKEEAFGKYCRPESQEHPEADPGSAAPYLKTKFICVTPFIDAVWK

| SMILES | activity at 10 µM (G-CSF-stimulated pSTAT3; Homo sapiens, Kasumi1 cells) | inhibition at 10 µM (G-CSF-stimulated pSTAT3; Homo sapiens) | inhibition at 10 µM (STAT3 (aa 127-722)) | % of max binding at 10 μm (STAT3 (aa 127-722)) | % of max binding at 100 μm (STAT3 (aa 127-722)) | % of Control Stimulated pSTAT3 (G-CSF-stimulated pSTAT3; Kasumi1 cells) | also measured |
| --- | --- | --- | --- | --- | --- | --- | --- |
| COc1ccc(/C=C/C(=O)c2cc(Br)ccc(=O)c2O)cc1 [SPEC-8, 5-bromo-2-hydroxy-3-[3-(4-methoxyphenyl)acryloyl]-2,4,6-cycloheptatrien-1-one] | 0% | 20 to 80% | 29 to 71% | 49.1% | 30.3% |  | IC50 (G-CSF-stimulated pSTAT3; [1]): 4100 nM; inhibition at 100 µM (STAT3 (aa 127-722)): 67 to 93%; IC50 (MDA-MB-231 cells; [2]): 26100 nM |
| CCCCOc1ccc(/C=C2\SC(=O)NC2=O)cc1OCC [SPEC-20] |  |  |  | 76.7% | 46.1% | 27% |  |
| COc1ccc(Br)cc1/C=C/C(=O)c1ccc(NC(C)=O)cc1 [SPEC-29, N-(4-[(E)-3-(5-bromo-2-methoxyphenyl)prop-2-enoyl)phenyl]acetamide] | 0% | 20 to 80% | 29 to 71% | 69.6% | 22.1% |  | IC50 (G-CSF-stimulated pSTAT3; [1]): 2700 nM; inhibition of STAT3 binding to EGFR pY-peptide (STAT3 (aa 127-722)): 78%; inhibition at 100 µM (STAT3 (aa 127-722)): 67 to 93%; IC50 (MDA-MB-468 cells; Homo sapiens, MDA-MB-468, 48 h, anchorage dependent, cell-culture treated plates, 48 hrs, read-out: Growth AD IC50 468): 2400 to 12100 nM; IC50 (MDA-MB-468 cells; Homo sapiens, MDA-MB-468, 72 h, anchorage independent, ultra-low attachment plates, 72 hrs, read-out: Growth AI IC50 468): 1800 to 11100 nM; IC50 (MDA-MB-468 cells; anchorage dependent, cell-culture treated plates, 48 hrs, read-out: Growth AD IC50 468): 2400 ± 2500 nM; IC50 (MDA-MB-468 cells; anchorage independent, ultra-low attachment plates, 72 hrs, read-out: Growth AI IC50 468): 1800 ± 1600 nM; IC50 (MDA-MB-231 cells; Homo sapiens, MDA-MB-231, 48 h, anchorage dependent, cell-culture treated plates, 48 hrs, read-out: Growth AD IC50 231): 3000 to 12200 nM; IC50 (MDA-MB-231 cells; [2]): 9500 ± 4100 nM; IC50 (MDA-MB-231 cells; anchorage dependent, cell-culture treated plates, 48 hrs, read-out: Growth AD IC50 231): 3000 ± 2200 nM |
| CC(C)c1ccc(NC(=O)C2C3C=CC(CC3)C2C(=O)O)cc1 (stereo not shown) [SPEC-65] |  |  |  | 57.5% | 43.5% | 35% |  |
| CS(=O)(=O)c1ccc2nc(NC(=O)c3cccc(Cn4cc(Cl)cn4)c3)sc2c1 [SPEC-66] |  |  |  | 57.2% | 15.9% | 48% |  |
| COc1ccc(CCNC(=O)c2cccc(C(=O)NCCc3ccc(OC)c(OC)c3)c2)cc1OC [SPEC-67] |  |  |  | 64.1% | 51.3% |  |  |
| O=C(Nc1ccc(Oc2ccccc2Cl)cc1)C1C2CC3C(OC(=O)C31)C2Br (stereo not shown) [SPEC-73] |  |  |  | 58.5% | 31.5% | 38% |  |
| O=C(O)c1ccc(-c2ccc(/C=C3/NC(=O)N(Cc4ccccc4F)C3=O)o2)cc1Cl [SPEC-82] |  |  |  | 109.3% | 28.4% | 27% |  |
| O=C(O)COc1c(Br)cc(/C=C2\SC(=O)N(CC(=O)N3CCN(c4ccccc4)CC3)C2=O)cc1Br [SPEC-85, [2,6-dibromo-4-({2,4-dioxo-3-[2-oxo-2-(4-phenyl-1-piperazinyl)ethyl]-1,3-thiazolidin-5-ylidene}methyl)phenoxy]acetic acid] | 2% | 20 to 80% | 29 to 71% | 67.3% | 9.5% |  | IC50 (G-CSF-stimulated pSTAT3; Homo sapiens, Kasumi 1, Kasumi1 cells, G-CSF induced pSTAT3/GAPDH by Luminex): > 100000 nM; G-CSF pSTAT3 IC50 (G-CSF-stimulated pSTAT3; [1]): almost no activity; inhibition of STAT3 binding to EGFR pY-peptide (STAT3 (aa 127-722)): 95%; Growth AD IC50 468 (MDA-MB-468 cells; [3]): no activity; Growth AI IC50 468 (MDA-MB-468 cells; [4]): no activity; Growth AD IC50 231 (MDA-MB-231 cells; [3]): no activity; Growth AI IC50 231 (MDA-MB-231 cells; [4]): no activity |
